From ChEMBL document CHEMBL4000253 (Bioorg Med Chem, 2017)
Each block holds one molecule with its values, some of them ahead of it. The source made the active and inactive calls. The rule behind the calls is not given here.

Assays:
[1] = molecular target: T1, Tyrosinase (Mus musculus) (UniProt P11344); assay: Inhibition of tyrosinase in alpha-MSH-stimulated mouse B16F10 cells assessed as decrease in melanin content after 48 hrs
T1 sequence (whole entry): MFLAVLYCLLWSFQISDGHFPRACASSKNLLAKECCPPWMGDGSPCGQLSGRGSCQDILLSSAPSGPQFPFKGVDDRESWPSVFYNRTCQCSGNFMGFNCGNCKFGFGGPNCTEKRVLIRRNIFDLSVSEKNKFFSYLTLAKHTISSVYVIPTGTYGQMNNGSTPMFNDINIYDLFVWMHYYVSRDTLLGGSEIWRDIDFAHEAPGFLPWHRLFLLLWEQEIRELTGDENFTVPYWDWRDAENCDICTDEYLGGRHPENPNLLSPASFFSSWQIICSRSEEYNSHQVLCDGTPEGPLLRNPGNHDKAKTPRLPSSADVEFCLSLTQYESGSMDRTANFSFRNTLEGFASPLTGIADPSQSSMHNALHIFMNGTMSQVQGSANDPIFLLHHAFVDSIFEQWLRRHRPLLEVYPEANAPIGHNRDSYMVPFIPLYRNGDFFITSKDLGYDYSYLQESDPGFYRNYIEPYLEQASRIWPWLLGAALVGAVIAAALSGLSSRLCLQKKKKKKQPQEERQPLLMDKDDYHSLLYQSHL

Mushroom tyrosinase [2] = molecular target: T2, Mushroom tyrosinase (Agaricus bisporus, UniProt O42713+Q00024+C7FF04+C7FF05); assay: Inhibition of mushroom tyrosinase using L-DOPA as substrate assessed as decrease in dopachrome formation preincubated for 10 mins followed by substrate addition by spectrophotometric method
B16-F10 [3] = assay: Cytotoxicity against mouse B16F10 cells assessed as decrease in cell viability at >50 uM after 48 hrs by MTT assay; assay type: cell-based; conditions: b16-f10, 48 h
[4] = molecular target: T1, Tyrosinase (Mus musculus); assay: Inhibition of tyrosinase in alpha-MSH-stimulated mouse B16F10 cells assessed as residual activity at 10 uM preincubated for 48 hrs followed by L-DOPA addition relative to control
[5] = molecular target: T1, Tyrosinase (Mus musculus); assay: Inhibition of tyrosinase in alpha-MSH-stimulated mouse B16F10 cells preincubated for 48 hrs followed by L-DOPA addition
B16-F10 [6] = assay: Cytotoxicity against mouse B16F10 cells assessed as decrease in cell viability at <50 uM after 48 hrs by MTT assay; assay type: cell-based; conditions: b16-f10, 48 h
[7] = molecular target: T1, Tyrosinase (Mus musculus); assay: Inhibition of tyrosinase in alpha-MSH-stimulated mouse B16F10 cells assessed as decrease in melanin content at 10 to 50 uM after 48 hrs
[8] = molecular target: T3, Mushroom tyrosinase (Agaricus bisporus) (UniProt O42713+Q00024+C7FF04+C7FF05); assay: Uncompetitive inhibition of mushroom tyrosinase using 0.3 to 1 mM L-DOPA as substrate assessed as decrease in dopachrome formation preincubated for 10 mins followed by substrate addition by Lineweaver-Burk plot analysis
[9] = molecular target: T3, Mushroom tyrosinase (Agaricus bisporus); assay: Potency index, ratio of kojic acid IC50 to test compound IC50 for mushroom tyrosinase
[10] = molecular target: T1, Tyrosinase (Mus musculus); assay: Inhibition of tyrosinase in alpha-MSH-stimulated mouse B16F10 cells assessed as residual activity at 50 uM preincubated for 48 hrs followed by L-DOPA addition relative to control
[11] = molecular target: T1, Tyrosinase (Mus musculus); assay: Inhibition of tyrosinase in alpha-MSH-stimulated mouse B16F10 cells assessed as residual activity at 25 uM preincubated for 48 hrs followed by L-DOPA addition relative to control
[12] = molecular target: T1, Tyrosinase (Mus musculus); assay: Inhibition of tyrosinase in alpha-MSH-stimulated mouse B16F10 cells up to 50 uM preincubated for 48 hrs followed by L-DOPA addition
Mushroom tyrosinase [13] = molecular target: T2, Mushroom tyrosinase; assay: Competitive inhibition of mushroom tyrosinase using 0.3 to 1 mM L-DOPA as substrate assessed as decrease in dopachrome formation preincubated for 10 mins followed by substrate addition by Lineweaver-Burk plot analysis
[14] = molecular target: T1, Tyrosinase (Mus musculus); assay: Inhibition of tyrosinase in alpha-MSH-stimulated mouse B16F10 cells assessed as decrease in melanin content up to 50 uM after 48 hrs
[15] = molecular target: T1, Tyrosinase (Mus musculus); assay: Inhibition of tyrosinase in alpha-MSH-stimulated mouse B16F10 cells at 10 to 50 uM preincubated for 48 hrs followed by L-DOPA addition and subsequent incubation in dark measured after 1 hr by zymographic method
[16] = molecular target: T1, Tyrosinase (Mus musculus); assay: Inhibition of tyrosinase in alpha-MSH-stimulated mouse B16F10 cells at 25 uM preincubated for 48 hrs followed by L-DOPA addition relative to control
[17] = molecular target: T1, Tyrosinase (Mus musculus); assay: Inhibition of tyrosinase in alpha-MSH-stimulated mouse B16F10 cells at 10 uM preincubated for 48 hrs followed by L-DOPA addition relative to control

inhibition [12]: inactive
IC50 (Mushroom tyrosinase [2]): 0.15 µM
Ki (Mushroom tyrosinase [13]): 0.24 µM
Ratio IC50 [9]: 120
inhibition [14]: inactive
Compound: O=c1oc2cc(O)cc(O)c2cc1-c1cccs1
Activity (B16-F10 [3]): Toxic
Activity (B16-F10 [6]): Non-Toxic

IC50 (Mushroom tyrosinase [2]): > 1000 µM
Compound: O=c1oc2ccc(O)cc2cc1-c1cccs1

IC50 (Mushroom tyrosinase [2]): 31.8 µM
Compound: O=c1oc2cc(O)ccc2cc1-c1cc(Br)cs1

IC50 (Mushroom tyrosinase [2]): > 1000 µM
Compound: O=c1oc2cc(O)ccc2cc1-c1cccs1

IC50 (Mushroom tyrosinase [2]): > 1000 µM
Compound: COc1ccc2oc(=O)c(-c3cccs3)cc2c1

Second part, the molecule before the results:

Compound: O=c1oc2cc(O)cc(O)c2cc1-c1cc(Br)cs1
inhibition [1]: Dose-dependent effect
IC50 (Mushroom tyrosinase [2]): 0.38 µM
Activity (B16-F10 [3]): Toxic
Activity [4]: 94.3%
inhibition [5]: Dose-dependent effect
Activity (B16-F10 [6]): Non-Toxic
inhibition [7]: Active
Kis [8]: 0.128 µM
Ratio IC50 [9]: 50
Activity [10]: 27.7%
Activity [11]: 78.5%

Compound: COc1ccc2oc(=O)c(-c3cc(Br)cs3)cc2c1
IC50 (Mushroom tyrosinase [2]): > 1000 µM

Compound: O=c1oc2cc(O)cc(O)c2cc1-c1ccccc1
IC50 (Mushroom tyrosinase [2]): 408.37 µM

Compound: O=c1oc2cc(O)cc(O)c2cc1-c1ccc(Br)cc1
inhibition [15]: Active
inhibition [1]: Dose-dependent effect
IC50 (Mushroom tyrosinase [2]): 1.05 µM
inhibition [5]: Dose-dependent effect
inhibition [7]: Active
inhibition [16]: 51.8%
inhibition [17]: 18.1%

Compound: O=c1oc2cc(O)cc(O)c2cc1-c1ccsc1
inhibition [12]: inactive
IC50 (Mushroom tyrosinase [2]): 0.19 µM
inhibition [14]: inactive

Compound: O=c1oc2c(O)c(O)ccc2cc1-c1cc(Br)cs1
IC50 (Mushroom tyrosinase [2]): 259.03 µM

Compound: O=c1oc2c(O)cccc2cc1-c1cc(Br)cs1
IC50 (Mushroom tyrosinase [2]): > 1000 µM
